Read-outs that look alike come from different tables or passages of the source.
Columns and labels:
[1] = target: T1, bovine serum albumin (BSA) (Bos taurus, UniProt P02769); test: NP TLC on plates impregnated with bovine serum albumin; type: binding; conditions: for NP (Rf value from the NP plate impregnated with 2 mg/mL BSA solution): Table S8, external group; for NP (Rf, BSA-impregnated NP plate): Table S3, NP plate impregnated with 2 mg/mL BSA, pH 7.4 mobile phase
T1 construct: purchased Sigma Aldrich
Excerpt: Chromatographic descriptors were obtained in experiments, thin layer chromatography in normal (NP TLC) and reversed mode (RP TLC). The stationary phase was modified with bovine serum albumin (BSA). TLC was the source of retention factor (Rf) values, denoted in statistical models as NP and RP.
(§1) For TLC chromatography, glass plates 20 × 20 cm from Merck, covered with silica gel with the addition of a fluorescent indicator, were used. Normal phase (NP) plates were used with standard Merck TLC Silica gel 60 F254 plates, while in reverse phase (RP) silanized plates RP-2: Merck TLC Silica gel 60 RP-2 F254 were used.
The stationary phase of the plates, both NP and RP, was modified with an aqueous solution of bovine serum albumin purchased from Sigma Aldrich (bovine serum albumin, lyophilized powder).
The impregnation of the plates was carried out with a 2 mg/mL solution applied to the surface using a Desaga SG 1 hand sprayer; the plates were then air dried. […] Normal and reversed phase thin layer chromatography (NP TLC and RP TLC respectively) was performed using silica-gel-coated glass plates. Half of them were covered with 2 mg/mL bovine serum albumin solution and half remained pure.
(§2) The mobility of the compounds was also determined on the plates with no protein as a modifier. […] The acetate buffer (20 mM) was prepared by dissolving 1.54 g of ammonium acetate in 1 L of distilled water. The pH was then adjusted with a concentrated ammonia solution using a pH meter. The plates were developed in standard, vertical chromatographic chambers, each time using 100 mL of the mobile phase, after the chamber was previously saturated with solvent vapors for approximately 1 h.
(§3) The unfolded-protein-impregnated plates and the control plates were scanned with a Desaga CD 60 densitometer. The values of the delay factor (Rf) were collected, i.e., the ratio of the distance traveled by the substance to be analyzed to the distance traveled through the front of the mobile phase. […] The experiment was repeated (for both BSA-coated and control plates) and the Rf values pooled are the mean of both series of experiments.

[2] = target: T1, bovine serum albumin (BSA); test: RP TLC on plates impregnated with bovine serum albumin; type: binding; conditions: for RP (Rf value from the RP plate impregnated with 2 mg/mL BSA solution): Table S8, external group; for RP (Rf, BSA-impregnated RP plate): Table S4, RP plate impregnated with 2 mg/mL BSA, pH 7.4 mobile phase
[3] = NP TLC on non-impregnated control plates; type: physicochemical; conditions: for CNP (Rf value from the non-impregnated NP plate, control): Table S8, external group; for CNP (Rf, control NP plate): Table S3, non-impregnated NP plate, acetonitrile/acetate buffer pH 7.4/methanol 60:20:20
Description: as §1
Normal and reversed phase thin layer chromatography (NP TLC and RP TLC respectively) was performed using silica-gel-coated glass plates. Half of them were covered with 2 mg/mL bovine serum albumin solution and half remained pure.
as §2, §3

[4] = RP TLC on non-impregnated control plates; type: physicochemical; conditions: for CRP (Rf value from the non-impregnated RP plate, control): Table S8, external group; for CRP (Rf, control RP plate): Table S4, non-impregnated RP plate, acetonitrile/acetate buffer pH 7.4/methanol 60:20:20
[5] = HPLC on immobilized artificial membrane column (HPLCIAM); type: physicochemical; conditions: for log kIAM / kIAM: Table S9, external group; for log k IAM: Table S5, IAM column, pH 7.4; for k IAM: Table S5, retention factor, IAM column, phosphate buffer pH 7.4/acetonitrile 80:20
Description: High performance liquid chromatography was performed using immobilized human serum albumin column (HPLCHSA) and immobilized artificial membrane (HPLCIAM). HPLC was the source of the log k values (logarithm of retention factor), log kHSA and log kIAM.
The second experiment was performed using an immobilized artificial membrane (IAM) column. The assay was also performed on a Perkin Elmer Series 200 instrument connected to a UV-VIS spectrometer as the detector. The analytical wavelength was the same for all compounds, at 210 nm. […] The mobile phase was a mixture of 10 mM phosphate buffer pH 7.4 and acetonitrile in the ratio 80:20 (v/v). The phosphate buffer was obtained by dissolving the finished tablet in the appropriate amount of distilled water (1 tablet per 200 mL). In this case, it was not necessary to adjust the pH of the buffer using a pH meter.
The phase flow through the system was set to 0.5 mL/min as recommended by the column manufacturer. The solutions were delivered to the column using an autosampler syringe, the injection size was 10 µL.
The experiment was then repeated and the collected retention rates were the mean values of both series.

[6] = target: T2, human serum albumin (HSA) (Homo sapiens, UniProt P02768); conditions: for k HSA: Table S5, retention factor, HSA column, pH 7.4, 25 degrees Celsius
[7] = cited from earlier work
plasma protein = conditions: ref DrugBank [7], cited from earlier work
[8] = ref DrugBank [7], cited from earlier work
[9] = target: T2, human serum albumin (HSA); test: in vitro; conditions: immobilized hsa column, pH 7.4
[10] = Milk-to-plasma (M/P) drug concentration ratio obtained in vivo, from literature; parameters: species or system human; conditions: Table S1, scale of drug penetration into milk 1-4
[11] = Table S6, external group (n = 38)
[12] = Table S6, external group (n = 38), given as fraction
[13] = Table S6, external group, coded 1/0
[14] = human, immobilized hsa column, pH 7.4
[15] = Table S1, plasma protein binding given as fraction

T1 sequence (P02769 25-607): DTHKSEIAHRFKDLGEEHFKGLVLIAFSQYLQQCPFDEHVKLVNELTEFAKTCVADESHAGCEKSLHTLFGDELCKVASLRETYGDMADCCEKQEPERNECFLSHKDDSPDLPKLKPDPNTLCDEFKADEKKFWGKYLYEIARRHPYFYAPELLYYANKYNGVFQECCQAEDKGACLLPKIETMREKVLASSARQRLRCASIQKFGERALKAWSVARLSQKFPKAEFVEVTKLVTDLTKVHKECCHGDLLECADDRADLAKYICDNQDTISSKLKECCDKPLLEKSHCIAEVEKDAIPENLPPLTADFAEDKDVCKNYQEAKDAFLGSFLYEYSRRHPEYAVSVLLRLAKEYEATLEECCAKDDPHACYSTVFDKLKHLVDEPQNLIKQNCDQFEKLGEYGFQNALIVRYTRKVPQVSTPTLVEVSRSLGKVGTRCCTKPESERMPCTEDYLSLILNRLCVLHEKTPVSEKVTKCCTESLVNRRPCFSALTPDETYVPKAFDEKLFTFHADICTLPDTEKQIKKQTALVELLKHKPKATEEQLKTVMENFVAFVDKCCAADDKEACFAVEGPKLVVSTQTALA
T2 sequence (P02768 25-609): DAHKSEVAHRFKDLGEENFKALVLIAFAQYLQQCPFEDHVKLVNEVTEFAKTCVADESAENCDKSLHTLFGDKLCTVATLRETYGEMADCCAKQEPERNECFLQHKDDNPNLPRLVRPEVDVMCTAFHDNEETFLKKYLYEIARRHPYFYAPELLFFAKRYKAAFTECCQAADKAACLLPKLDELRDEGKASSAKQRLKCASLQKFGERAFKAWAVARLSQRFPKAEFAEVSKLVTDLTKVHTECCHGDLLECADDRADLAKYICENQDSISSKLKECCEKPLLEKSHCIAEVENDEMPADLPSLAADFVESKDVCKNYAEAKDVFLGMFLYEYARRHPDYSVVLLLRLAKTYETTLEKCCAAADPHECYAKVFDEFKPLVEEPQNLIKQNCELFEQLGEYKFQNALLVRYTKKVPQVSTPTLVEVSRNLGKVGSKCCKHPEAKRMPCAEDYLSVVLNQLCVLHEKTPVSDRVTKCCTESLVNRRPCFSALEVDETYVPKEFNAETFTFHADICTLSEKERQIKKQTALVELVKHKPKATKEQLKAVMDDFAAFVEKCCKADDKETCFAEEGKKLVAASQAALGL

Row | SMILES | NP (Rf value from the NP plate impregnated with 2 mg/mL BSA solution) [1] | RP (Rf value from the RP plate impregnated with 2 mg/mL BSA solution) [2] | CNP (Rf value from the non-impregnated NP plate, control) [3] | CRP (Rf value from the non-impregnated RP plate, control) [4] | log kIAM [5] | kHSA ([6]; Table S9, external group) | M/P [7, 11] | PB (plasma protein; [12]) | CNS+/- [8, 13] | kIAM [5] | chromatographic logD [9] | other results
1 | CCCCN1CCCCC1C(=O)Nc1c(C)cccc1C (centres unmarked) [bupivacaine] | 0.67 | 0.75 | 0.67 | 0.74 | 0.48 | 1.18 | 0.37 | 0.95 | 1 | – | – | log kHSA ([6]; Table S9, external group): 0.07
2 | CN(C)CCC=C1c2ccccc2COc2ccccc21 [doxepin] | 0.31 | 0.54 | 0.30 | – | 0.45 | 4.25 | 1.37 | 0.76 | 1 | 2.81 | – | log kHSA [6, 14]: 0.63
3 | CN1CCC[C@@H]1Cc1c[nH]c2ccc(CCS(=O)(=O)c3ccccc3)cc12 [eletriptan] | – | – | – | – | 0.55 | 3.78 | 0.25 | – | 1 | 3.57 | – | log kHSA [6, 14]: 0.58
4 | CC[C@@H](CO)NCCN[C@@H](CC)CO [ethambutol] | 0.21 | 0.95 | 0.19 | 0.97 | 0.34 | 1.73 | 1.00 | – | 0 | 2.18 | – | log kHSA [6, 14]: 0.24
5 | CCC(C)n1ncn(-c2ccc(N3CCN(c4ccc(OCC5COC(Cn6cncn6)(c6ccc(Cl)cc6Cl)O5)cc4)CC3)cc2)c1=O (centres unmarked) [itraconazole] | 0.97 | 0.84 | 0.96 | 0.86 | 0.79 | 9.65 | 1.14 | 1.00 | 0 | 6.15 | 0.98 | –
6 | O=C(c1ccccc1)c1ccc2n1CCC2C(=O)O (centres unmarked) [ketorolac] | 0.91 | 0.96 | 0.92 | 0.96 | 0.38 | 9.65 | 0.03 | 0.99 | 1 | 2.39 | 0.98 | –
7 | CN1CCC(=C2c3ccccc3CC(=O)c3sccc32)CC1 [ketotifen] | – | – | – | – | – | – | – | – | – | – | 0.77 | NP (Rf, BSA-impregnated NP plate) [1]: 0.36; RP (Rf, BSA-impregnated RP plate) [2]: 0.74; CNP (Rf, control NP plate) [3]: 0.34; CRP (Rf, control RP plate) [4]: 0.75; log k IAM [5]: 1.34; k IAM [5]: 22.04; k HSA [6]: 5.83; PB (plasma protein; [15]): 0.75; CNS+/- ([8]; Table S1, coded 1/0): 1
8 | CC[C@@H](C(N)=O)N1CCCC1=O [levetiracetam] | 0.92 | 0.92 | 0.92 | 0.92 | 0.21 | 0.07 | 1.00 | 0.10 | 1 | 1.62 | – | log kHSA ([6]; Table S9, external group): -1.16
9 | CCC[C@@H]1C[C@@H](C(=O)N[C@@H]([C@H]2O[C@H](SC)[C@H](O)[C@@H](O)[C@H]2O)[C@@H](C)O)N(C)C1 [lincomycin] | 0.91 | – | 0.91 | – | 0.59 | 0.82 | 0.15 | 0.70 | 0 | 3.89 | -0.08 | –
10 | Nc1ccc(O)c(C(=O)O)c1 [mesalazine] | – | 0.97 | – | 0.99 | 0.11 | 0.18 | 2.69 | 0.43 | 0 | 1.28 | -0.73 | –
11 | CCOC(=O)C1=C(C)NC(C)=C(C(=O)OC)C1c1cccc([N+](=O)[O-])c1 (centres unmarked) [nitrendipine] | 0.97 | 0.86 | 0.97 | 0.86 | 0.47 | 3.55 | 0.30 | 0.99 | 0 | 2.98 | – | log kHSA ([6]; Table S9, external group): 0.55
12 | NC(=O)N1c2ccccc2CC(=O)c2ccccc21 [oxcarbamazepine] | 0.90 | 0.91 | 0.91 | 0.91 | 0.35 | 0.40 | 0.50 | 0.40 | 1 | 2.26 | – | log kHSA ([6]; Table S9, external group): -0.40
13 | C[C@]12C=CC(=O)C=C1CC[C@@H]1[C@@H]2[C@@H](O)C[C@@]2(C)[C@H]1CC[C@]2(O)C(=O)CO [prednizolone] | – | – | – | – | – | – | – | – | – | – | – | M/P code [10]: 1 (Code 1 corresponds to drugs with an M/P value <0.40—completely safe); NP (Rf, BSA-impregnated NP plate) [1]: 0.94; RP (Rf, BSA-impregnated RP plate) [2]: 0.88; CNP (Rf, control NP plate) [3]: 0.94; CRP (Rf, control RP plate) [4]: 0.87; log k IAM [5]: 0.45; k IAM [5]: 2.84; log k HSA ([6]; Table S5, HSA, pH 7.4): -0.28; k HSA [6]: 0.52; M/P ([7]; Table S1, milk/plasma drug concentration ratio, in vivo): 0.13; PB (plasma protein; [15]): 0.9
14 | CC(N)C12CC3CC(CC(C3)C1)C2 (centres unmarked) [rimantadine] | 0.92 | 0.95 | 0.92 | 0.95 | 0.28 | 0.16 | 2.00 | – | 1 | 1.91 | – | –
15 | CCCc1nn(C)c2c(=O)[nH]c(-c3cc(S(=O)(=O)N4CCN(C)CC4)ccc3OCC)nc12 [sildenafil] | – | – | – | – | – | – | – | – | – | – | 0.21 | NP (Rf, BSA-impregnated NP plate) [1]: 0.67; RP (Rf, BSA-impregnated RP plate) [2]: 0.76; CNP (Rf, control NP plate) [3]: 0.69; CRP (Rf, control RP plate) [4]: 0.77; log k IAM [5]: 1.15; k IAM [5]: 14.26; k HSA [6]: 1.62; PB (plasma protein; [15]): 0.96; CNS+/- ([8]; Table S1, coded 1/0): 1
